In patent US20260132140A1, “IMIDAZOLYL-AMINO-PYRAZINE-CARBONITRILS AS CHK-1 INHIBITORS” (BenevolentAI Bio Limited, priority 2022, published 2026):
Like-named read-outs stand apart in the source and are kept apart here.

What was measured:
RSK4 = biological target: T1, RSK4 (Homo sapiens, UniProt Q9UK32); assay: RSK1-4 kinase assay (Eurofins KinaseProfiler, radiometric): RSK4; format: biochemical; conditions: approximately ATP Km
T1 construct: purchased Eurofins (KinaseProfiler service)
Excerpt: (§1) The radiometric kinase activity assays were run at approximately the ATP Km for each kinase and the IC50 data is shown in Table 24.

RSK3 = biological target: T2, RSK3 (Homo sapiens, UniProt Q15349); assay: RSK1-4 kinase assay (Eurofins KinaseProfiler, radiometric): RSK3; format: biochemical; conditions: approximately ATP Km
T2 construct: purchased Eurofins (KinaseProfiler service)
Excerpt: as §1

RSK1 = biological target: T3, RSK1 (Homo sapiens, UniProt Q15418); assay: RSK1-4 kinase assay (Eurofins KinaseProfiler, radiometric): RSK1; format: biochemical; conditions: approximately ATP Km
T3 construct: purchased Eurofins (KinaseProfiler service)
Excerpt: as §1

RSK2 = biological target: T4, RSK2 (Homo sapiens, UniProt P51812); assay: RSK1-4 kinase assay (Eurofins KinaseProfiler, radiometric): RSK2; format: biochemical; conditions: approximately ATP Km
T4 construct: purchased Eurofins (KinaseProfiler service)
Excerpt: as §1

GBM LN18 cells = assay: In vitro cell viability assay (Cell Titre Glo, 72 hours); format: cell-based; conditions: Homo sapiens, LN-18, read-out: LN18 pIC50 (converted)
Procedure: GBM LN18 cells were incubated with increasing concentrations of selected compounds of the invention for 72 hours prior to the measurement of ATP in metabolically viable cells with the Cell Titre® Glo Luminescent reagent. A 10-point concentration response curve up to a maximum concentration of 10 μM was tested.
The percent (%) effect i.e., inhibition at each concentration of compound was calculated based on, and relative to the amount of inhibition produced in the vehicle control and inhibited control wells contained within each plate.

[1] = system: pChk1(Ser296) in SW620 cells; assay: pChk1(Ser296) sandwich ELISA, cell-based on-target kinase activity; conditions: Homo sapiens, read-out: SW620 pIC50 (converted)
Procedure: ELISA assays were performed as per the manufacturer's protocol. […] Selected compounds of the invention were tested as a 8-point concentration response up to a maximum concentration of either 1 μM, 3 μM or 10 μM. The percent (%) effect i.e. inhibition at each concentration of compound was calculated based on, and relative to, the amount of inhibition produced in the vehicle control and inhibited control wells contained within each plate.

human Chk1 kinase = biological target: T5, human Chk1 kinase (Homo sapiens, UniProt O14757); assay: biochemical
T5 sequence (O14757 1-476): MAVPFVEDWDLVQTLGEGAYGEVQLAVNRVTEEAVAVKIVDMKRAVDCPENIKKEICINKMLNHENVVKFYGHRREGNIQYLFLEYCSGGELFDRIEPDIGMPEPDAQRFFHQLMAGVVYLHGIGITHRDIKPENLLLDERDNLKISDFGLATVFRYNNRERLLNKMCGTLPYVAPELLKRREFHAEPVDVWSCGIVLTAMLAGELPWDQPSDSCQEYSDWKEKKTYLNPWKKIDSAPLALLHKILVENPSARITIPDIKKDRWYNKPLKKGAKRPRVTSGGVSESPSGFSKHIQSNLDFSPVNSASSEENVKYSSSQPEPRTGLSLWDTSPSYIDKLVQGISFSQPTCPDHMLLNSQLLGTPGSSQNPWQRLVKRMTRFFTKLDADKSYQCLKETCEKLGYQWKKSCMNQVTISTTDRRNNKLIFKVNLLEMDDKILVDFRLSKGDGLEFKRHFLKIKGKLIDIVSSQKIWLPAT

human Chk2 kinase = human Chk2 kinase (Homo sapiens, UniProt O96017); assay: biochemical
[2] = SW-620, neocarzinostatin 7.5 μM, 2 hours
[3] = SW-620, 2 h, neocarzinostatin 7.5 μM

T3 sequence (Q15418 whole entry): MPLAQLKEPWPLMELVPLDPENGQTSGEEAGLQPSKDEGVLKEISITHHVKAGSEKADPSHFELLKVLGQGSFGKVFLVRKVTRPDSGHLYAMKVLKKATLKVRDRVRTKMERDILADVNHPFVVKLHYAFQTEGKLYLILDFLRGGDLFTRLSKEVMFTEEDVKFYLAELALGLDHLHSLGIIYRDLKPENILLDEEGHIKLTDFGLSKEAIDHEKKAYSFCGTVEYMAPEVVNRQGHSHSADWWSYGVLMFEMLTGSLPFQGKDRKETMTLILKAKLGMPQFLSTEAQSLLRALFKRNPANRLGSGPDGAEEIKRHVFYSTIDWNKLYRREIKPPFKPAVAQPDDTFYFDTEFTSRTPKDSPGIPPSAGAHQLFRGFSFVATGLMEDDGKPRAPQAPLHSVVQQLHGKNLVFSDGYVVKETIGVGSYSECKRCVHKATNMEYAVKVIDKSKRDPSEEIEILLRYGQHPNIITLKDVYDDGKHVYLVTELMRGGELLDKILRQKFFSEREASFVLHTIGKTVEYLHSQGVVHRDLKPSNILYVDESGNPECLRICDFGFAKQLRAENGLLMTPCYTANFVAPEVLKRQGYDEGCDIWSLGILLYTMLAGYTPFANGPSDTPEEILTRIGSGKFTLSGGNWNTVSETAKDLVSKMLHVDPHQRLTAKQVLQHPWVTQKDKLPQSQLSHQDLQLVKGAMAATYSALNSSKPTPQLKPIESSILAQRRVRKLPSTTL
Chain of human Chk2 kinase (O96017 whole entry): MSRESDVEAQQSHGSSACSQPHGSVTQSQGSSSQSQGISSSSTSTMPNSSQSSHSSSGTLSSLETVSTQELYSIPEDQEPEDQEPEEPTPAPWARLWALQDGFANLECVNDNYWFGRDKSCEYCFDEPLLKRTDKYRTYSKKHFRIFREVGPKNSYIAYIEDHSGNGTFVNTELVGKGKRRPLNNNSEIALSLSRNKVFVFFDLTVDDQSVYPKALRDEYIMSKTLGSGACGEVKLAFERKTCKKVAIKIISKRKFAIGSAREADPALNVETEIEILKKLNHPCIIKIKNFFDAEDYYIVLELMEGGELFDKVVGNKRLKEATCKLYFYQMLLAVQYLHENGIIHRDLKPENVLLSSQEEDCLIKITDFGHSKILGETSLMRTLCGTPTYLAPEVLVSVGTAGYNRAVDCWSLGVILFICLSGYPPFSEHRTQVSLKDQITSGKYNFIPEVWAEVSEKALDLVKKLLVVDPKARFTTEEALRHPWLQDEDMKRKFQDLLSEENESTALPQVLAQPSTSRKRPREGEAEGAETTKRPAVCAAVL
T2 sequence (Q15349 whole entry): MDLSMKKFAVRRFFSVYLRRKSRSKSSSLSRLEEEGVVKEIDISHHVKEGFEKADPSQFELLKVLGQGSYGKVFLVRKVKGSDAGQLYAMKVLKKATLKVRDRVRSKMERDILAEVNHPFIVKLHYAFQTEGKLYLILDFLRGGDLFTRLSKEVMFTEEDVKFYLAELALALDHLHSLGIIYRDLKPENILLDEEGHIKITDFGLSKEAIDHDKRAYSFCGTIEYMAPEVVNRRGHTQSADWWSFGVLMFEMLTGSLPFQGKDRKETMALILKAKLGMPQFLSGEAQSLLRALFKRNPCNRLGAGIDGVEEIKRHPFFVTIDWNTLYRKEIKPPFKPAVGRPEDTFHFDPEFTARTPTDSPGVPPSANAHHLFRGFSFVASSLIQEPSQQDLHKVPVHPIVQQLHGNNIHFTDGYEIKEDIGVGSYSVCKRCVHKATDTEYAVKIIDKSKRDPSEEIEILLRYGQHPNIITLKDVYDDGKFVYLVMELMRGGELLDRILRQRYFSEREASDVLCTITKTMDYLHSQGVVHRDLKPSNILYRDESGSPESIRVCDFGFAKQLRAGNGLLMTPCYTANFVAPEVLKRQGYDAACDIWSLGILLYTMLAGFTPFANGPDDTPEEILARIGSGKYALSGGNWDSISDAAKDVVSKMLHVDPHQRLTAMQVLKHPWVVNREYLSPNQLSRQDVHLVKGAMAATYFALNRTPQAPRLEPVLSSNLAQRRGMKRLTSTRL
T4 sequence (P51812 whole entry): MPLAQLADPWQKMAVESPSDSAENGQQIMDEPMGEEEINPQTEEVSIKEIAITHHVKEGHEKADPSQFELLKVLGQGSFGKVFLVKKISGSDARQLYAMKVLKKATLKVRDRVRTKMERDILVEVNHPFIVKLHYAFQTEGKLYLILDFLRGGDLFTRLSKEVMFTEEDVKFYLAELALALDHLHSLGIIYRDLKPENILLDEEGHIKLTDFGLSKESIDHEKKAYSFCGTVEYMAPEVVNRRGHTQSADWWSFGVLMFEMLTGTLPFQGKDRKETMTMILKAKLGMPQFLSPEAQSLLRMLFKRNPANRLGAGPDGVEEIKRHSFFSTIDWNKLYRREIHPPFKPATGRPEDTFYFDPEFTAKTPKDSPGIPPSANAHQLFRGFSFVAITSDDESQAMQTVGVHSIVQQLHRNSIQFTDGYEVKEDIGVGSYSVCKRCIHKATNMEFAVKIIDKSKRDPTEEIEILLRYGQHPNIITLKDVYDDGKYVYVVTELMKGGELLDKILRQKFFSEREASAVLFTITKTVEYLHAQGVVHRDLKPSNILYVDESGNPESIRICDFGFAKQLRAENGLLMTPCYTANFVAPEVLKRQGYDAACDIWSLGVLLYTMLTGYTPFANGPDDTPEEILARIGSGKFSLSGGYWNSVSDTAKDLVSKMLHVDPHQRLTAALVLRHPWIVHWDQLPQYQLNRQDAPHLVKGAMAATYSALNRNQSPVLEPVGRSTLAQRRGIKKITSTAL
T1 sequence (Q9UK32 whole entry): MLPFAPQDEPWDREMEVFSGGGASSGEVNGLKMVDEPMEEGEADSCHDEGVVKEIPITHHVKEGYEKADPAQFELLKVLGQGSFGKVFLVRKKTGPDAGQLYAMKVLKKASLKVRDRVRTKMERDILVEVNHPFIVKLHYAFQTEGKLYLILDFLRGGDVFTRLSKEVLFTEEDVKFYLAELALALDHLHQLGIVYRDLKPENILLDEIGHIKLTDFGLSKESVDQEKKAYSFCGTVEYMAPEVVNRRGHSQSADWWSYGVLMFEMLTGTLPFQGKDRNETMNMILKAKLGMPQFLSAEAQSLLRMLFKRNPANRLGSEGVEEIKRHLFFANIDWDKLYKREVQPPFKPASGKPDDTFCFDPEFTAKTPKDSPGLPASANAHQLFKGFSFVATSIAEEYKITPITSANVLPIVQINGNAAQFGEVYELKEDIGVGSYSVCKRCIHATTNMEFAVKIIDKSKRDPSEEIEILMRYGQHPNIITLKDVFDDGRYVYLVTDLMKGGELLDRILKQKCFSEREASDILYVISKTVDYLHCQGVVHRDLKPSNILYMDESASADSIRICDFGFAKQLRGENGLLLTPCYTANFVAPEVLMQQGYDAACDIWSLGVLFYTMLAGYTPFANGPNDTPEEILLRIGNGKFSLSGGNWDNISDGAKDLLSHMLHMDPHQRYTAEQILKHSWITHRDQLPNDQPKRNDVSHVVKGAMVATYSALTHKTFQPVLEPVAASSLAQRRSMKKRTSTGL

Row | Compound | IC50 (RSK4) [nM] | IC50 (RSK3) [nM] | IC50 (RSK1) [nM] | IC50 (RSK2) [nM] | IC50 (GBM LN18 cells) [nM] | IC50 [1, 2] [nM] | IC50 (human Chk1 kinase) [nM] | IC50 [1, 3] [nM] | IC50 (human Chk2 kinase) [µM]
1 | CN1CCC(F)(c2ccc(-n3cnc(Nc4cnc(C#N)cn4)c3)cc2)CC1 [Example 4, 5-((1-(4-(4-Fluoro-1-methylpiperidin-4-yl)phenyl)-1H-imidazol-4-yl)amino)pyrazine-2-carbonitrile] | 4960 | 2210 | > 10000 | 2460 |  |  |  |  | 
2 | [2H]C([2H])([2H])N([C@@H]1CCN(c2ccc(-n3cnc(Nc4cnc(C#N)cn4)c3)cc2)C1)C([2H])([2H])[2H] [Example 84, (R)-5-((1-(4-(3-(Bis(methyl-d3)amino)pyrrolidin-1-yl)phenyl)-1H-imidazol-4-yl)amino)pyrazine-2-carbonitrile] |  |  |  |  | < 1000 | 1000 to 10000 | < 10 |  | 
3 | C[C@@H]1C[C@@H](N(C)C)CN1c1ccc(-n2cnc(Nc3cnc(C#N)cn3)c2)nc1 [Example 85, 5-((1-(5-((2R,4R)-4-(Dimethylamino)-2-methylpyrrolidin-1-yl)pyridin-2-yl)-1H-imidazol-4-yl)amino)pyrazine-2-carbonitrile] |  |  |  |  | < 1000 |  | < 10 | < 1000 | 1 to 10
4 | Cc1nc(-n2cnc(Nc3cnc(C#N)cn3)c2)ccc1N1CC[C@@H](N(C)C)C1 [Example 59, (R)-5-((1-(5-(3-(Dimethylamino)pyrrolidin-1-yl)-6-methylpyridin-2-yl)-1H-imidazol-4-yl)amino)pyrazine-2-carbonitrile] |  |  |  |  | < 1000 |  | < 10 | 1000 to 10000 | 1 to 10
5 | CCNCc1ccc(-c2cc(Nc3cnc(C#N)cn3)n[nH]2)c(OC)c1 [Comparator Ex. 3, 5-((5-(4-((Ethylamino)methyl)-2-methoxyphenyl)-1H-pyrazol-3-yl)amino)pyrazine-2-carbonitrile, reference compound] | 163 | 60 | 570 | 172 |  |  |  |  | 
6 | N#Cc1cnc(Nc2cn(-c3ccc(N4CCC(N5CCC5)C4)cc3)cn2)cn1 (single isomer, unassigned) [Example 113, 5-((1-(4-(3-(Azetidin-1-yl)pyrrolidin-1-yl)phenyl)-1H-imidazol-4-yl)amino)pyrazine-2-carbonitrile] |  |  |  |  | < 1000 |  | 10 to 31.6 | 1000 to 10000 | 10 to 100
7 | CN(C)[C@]1(C)CCN(c2ccc(-n3cnc(Nc4cnc(C#N)cn4)c3)cc2)C1 [Example 78, (R)-5-((1-(4-(3-(Dimethylamino)-3-methylpyrrolidin-1-yl)phenyl)-1H-imidazol-4-yl)amino)pyrazine-2-carbonitrile] |  |  |  |  | < 1000 | < 1000 | < 10 |  | 1 to 10
8 | N#Cc1cnc(Nc2cn(-c3ccc(N4CC[C@@H](N)C4)cc3)cn2)cn1 [Example 153, (R)-5-((1-(4-(3-Aminopyrrolidin-1-yl)phenyl)-1H-imidazol-4-yl)amino)pyrazine-2-carbonitrile] |  |  |  |  | 1000 to 10000 |  | 10 to 31.6 | 1000 to 10000 | 1 to 10
9 | COc1cccc(OCCCN)c1-c1cc(Nc2cnc(C#N)cn2)n[nH]1 [Comparator Ex. 1, 5-((5-(2-(3-Aminopropoxy)-6-methoxyphenyl)-1H-pyrazol-3-yl)amino)pyrazine-2-carbonitrile, reference compound] | 5 | 4 | 20 | 2 |  |  |  |  | 
10 | N#Cc1cnc(Nc2cn(-c3ccccc3OCCCN)cn2)cn1 [Example 168, 5-((1-(2-(3-Aminopropoxy)phenyl)-1H-imidazol-4-yl)amino)pyrazine-2-carbonitrile] | > 10000 | 5830 | > 10000 | 7070 | 1000 to 10000 | 1000 to 10000 |  |  | 
11 | N#Cc1cnc(Nc2cn(-c3ccc(N4C[C@H](N)C5(CC5)C4)cc3)cn2)cn1 [Example 154, (R)-5-((1-(4-(7-Amino-5-azaspiro[2.4]heptan-5-yl)phenyl)-1H-imidazol-4-yl)amino)pyrazine-2-carbonitrile] |  |  |  |  | < 1000 |  | < 10 | 1000 to 10000 | 1 to 10
12 | CN1C[C@@H]2CN(c3ccc(-n4cnc(Nc5cnc(C#N)cn5)c4)cc3)C[C@@H]21 [Example 1, 5-((1-(4-((1R,5R)-6-Methyl-3,6-diazabicyclo[3.2.0]heptan-3-yl)phenyl)-1H-imidazol-4-yl)amino)pyrazine-2-carbonitrile] |  |  |  |  | < 1000 |  | < 10 | 1000 to 10000 | 1 to 10
13 | C[C@@]1(N)CCN(c2ccc(-n3cnc(Nc4cnc(C#N)cn4)c3)cc2)C1 [Example 156, (R)-5-((1-(4-(3-Amino-3-methylpyrrolidin-1-yl)phenyl)-1H-imidazol-4-yl)amino)pyrazine-2-carbonitrile] |  |  |  |  | < 1000 |  | 10 to 31.6 | 1000 to 10000 | 10 to 100
14 | COc1cc(N2CC[C@@H](N(C)C)C2)ccc1-n1cnc(Nc2cnc(C#N)cn2)c1 [Example 47, (R)-5-((1-(4-(3-(Dimethylamino)pyrrolidin-1-yl)-2-methoxyphenyl)-1H-imidazol-4-yl)amino)pyrazine-2-carbonitrile] |  |  |  |  | < 1000 | < 1000 |  |  | 
15 | COc1cc(N2CCN(C)CC2)ccc1-c1cc(Nc2cnc(C#N)cn2)n[nH]1 [Comparator Ex. 2, 5-((5-(2-Methoxy-4-(4-methylpiperazin-1-yl)phenyl)-1H-pyrazol-3-yl)amino)pyrazine-2-carbonitrile, reference compound] | 77 | 24 | 259 | 80 |  |  |  |  | 
16 | CN(C)[C@@H]1CCN(c2ccc(-n3cnc(Nc4cnc(C#N)cn4)c3)c(F)c2)C1 [Example 65, (R)-5-((1-(4-(3-(Dimethylamino)pyrrolidin-1-yl)-2-fluorophenyl)-1H-imidazol-4-yl)amino)pyrazine-2-carbonitrile] |  |  |  |  | < 1000 | 1000 to 10000 |  |  | 
17 | C[C@@H]1C[C@@H](N(C)C)CN1c1ccc(-n2cnc(Nc3cnc(C#N)cn3)c2)cc1 [Example 74, 5-((1-(4-((2R,4R)-4-(Dimethylamino)-2-methylpyrrolidin-1-yl)phenyl)-1H-imidazol-4-yl)amino)pyrazine-2-carbonitrile] |  |  |  |  | < 1000 | < 1000 |  |  | 
18 | C[C@H]1CN(c2ccc(-n3cnc(Nc4cnc(C#N)cn4)c3)cc2)C[C@@H]1N(C)C [Example 73, 5-((1-(4-((3R,4S)-3-(Dimethylamino)-4-methylpyrrolidin-1-yl)phenyl)-1H-imidazol-4-yl)amino)pyrazine-2-carbonitrile] |  |  |  |  | < 1000 | < 1000 | < 10 |  | 1 to 10
19 | CN[C@H]1CN(c2ccc(-n3cnc(Nc4cnc(C#N)cn4)c3)cc2)C[C@H]1F [Example 92, 5-((1-(4-((3R,4S)-3-Fluoro-4-(methylamino)pyrrolidin-1-yl)phenyl)-1H-imidazol-4-yl)amino)pyrazine-2-carbonitrile] |  |  |  |  | < 1000 |  | < 10 | < 1000 | 1 to 10
20 | CN1CCC12CN(c1ccc(-n3cnc(Nc4cnc(C#N)cn4)c3)cc1)C2 [Example 61, 5-((1-(4-(1-Methyl-1,6-diazaspiro[3.3]heptan-6-yl)phenyl)-1H-imidazol-4-yl)amino)pyrazine-2-carbonitrile] | 4070 | 1920 | 6780 | 2670 |  |  | 10 to 31.6 |  | 10 to 100
21 | CCN(C)[C@@H]1CCN(c2ccc(-n3cnc(Nc4cnc(C#N)cn4)c3)cc2)C1 [Example 89, (R)-5-((1-(4-(3-(Ethyl(methyl)amino)pyrrolidin-1-yl)phenyl)-1H-imidazol-4-yl)amino)pyrazine-2-carbonitrile] |  |  |  |  | < 1000 |  | < 10 |  | 1 to 10
22 | CCN(C)[C@@H]1CCN(c2ccc(-n3cnc(Nc4cnc(C#N)cn4)c3)nc2)C1 [Example 90, (R)-5-((1-(5-(3-(Ethyl(methyl)amino)pyrrolidin-1-yl)pyridin-2-yl)-1H-imidazol-4-yl)amino)pyrazine-2-carbonitrile] |  |  |  |  | < 1000 |  | 10 to 31.6 |  | 1 to 10
